Assay results: US20100197581A1, “NATIVE GP41 ASSAY” (priority 2007, published 2010)
Like-named read-outs stand apart in the source and are kept apart here.

Legend:
[1] = target: T1, gp41 (HR1 region) in native HIV-1 envelope spikes on HUTIIIB cells (Human immunodeficiency virus type 1 group M subtype B, UniProt P04578, V708A); type: binding, HIV-1 IIIB
[2] = target: T1, gp41 (HR1 region) in native HIV-1 envelope spikes on HUTIIIB cells; details: for activity in native gp41 assay (words, Table 4 results): reference compounds, flow cytometric- and HCS-based assay
Procedure: A serial dilution of test compounds, dissolved in DMSO, were diluted in culture medium (RPMI1640 with Ultraglutamin and Hepes w/o phenol red with 10% bovine calf serum (HyClone) and 20 μg/l gentamycin) with a final DMSO concentration of 1% and added to 384 well Cell Carrier plates (Evotec Technologies). Hut-IIIB cells (15000 cells/well) were added to these test plates and incubated for 30 min at room temperature. […] Finally, a solution of DRAQ 5 in PBS (final concentration of 5 μM) was added to the wells. After incubating the plates for 30′ at room temperature, the test plates were measured using the Opera™ confocal microscope high content screening platform (Evotec Technologies). After every addition, mixing of the well content was achieved by placing the 384w plates on a 384w shaker (MixMate, Eppendorf) for 5 seconds at 2000 rpm.
Image acquisition was performed using a 40× water immersion objective and simultaneous excitation of FITC and Draq5 fluorescence with a 488 and a 635 laser. […] Output parameters of the script included among others “mean (number of spots per cell)” and “mean (integrated spot signal)”. […] Furthermore, potential false positive results due to fluorescence or false negative results due to quenching can be assessed by comparing the inhibition curves generated by the two above mentioned output parameters.

[3] = small molecules, specificity experiments, flow cytometry, read-out: Native gp41 EC50
[4] = optimized protocol, […] C34-FITC, 75000 cells/well, compound added before sCD4, 3 independent experiments, read-out: EC50 flow cytometry

Structure (SMILES) | EC50 [1, 3] | EC50 [1, 4] | activity in native gp41 assay (words, Table 4 results) [2] | further results
O=C(O)C1=CC(=C(c2ccc(O)c(C(=O)O)c2)c2ccc(O)c(C(=O)O)c2)C=CC1=O [ATA] | > 200 µM |  |  | inhibition of C34-FITC binding ([1]; small molecules, specificity experiments): about 40%
Cc1cn([C@H]2C[C@H](N=[N+]=[N-])[C@@H](CO)O2)c(=O)[nH]c1=O [AZT] | > 200 µM |  |  | 
COc1ccnc2[nH]cc(C(=O)C(=O)N3CCN(C(=O)c4ccccc4)C[C@H]3C)c12 [BMS-806] | > 200 µM | 0.013 µM | active | difference between addition of compound before, after or together with sCD4 induction ([1]; three orders of addition, FIG. 1): large increase of sensitivity when the compound was added before or together with sCD4; EC50 ([2]; read-out: EC50 HCS, mean number of spots per cell, 0.5 nM C34-FITC, compound added before sCD4, 3 independent experiments): 0.0043 µM
O=C1Nc2ccc(Cl)cc2[C@@](C#CC2CC2)(C(F)(F)F)O1 [EFV] | > 200 µM | > 200 µM | no activity | cytotoxicity in HCS native gp41 assay ([2]; Hut-IIIB cells, 200 μM): cytotoxicity
O=C(NCc1ccc(F)cc1)c1nc(N2CCCCS2(=O)=O)c2cccnc2c1O [L870,810] | > 200 µM |  |  | 
CC(C)(C)NC(=O)[C@@H]1C[C@@H]2CCCC[C@@H]2CN1C[C@@H](O)[C@H](Cc1ccccc1)NC(=O)[C@H](CC(N)=O)NC(=O)c1ccc2ccccc2n1 [SQV] | > 200 µM |  |  | 
